Reference: ChEMBL document CHEMBL1201862, “PubChem BioAssay data set” (2004)
The source made the active and inactive calls.

What was measured:
Fatty acid synthase [1] = target: T1, Fatty acid synthase (Homo sapiens, UniProt P49327); experiment: inhibition of human FAS-TE enzyme activity – biochemical, kinetic fluorescence intensity, dose response (AID 624326); format: functional;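 also: rate of fluorescence rise from hydrolysis of a fluorogenic O-methyl fluorescein ester substrate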
[2] = target: T2, Delta-type opioid receptor (Homo sapiens, UniProt P41143); experiment: HTS Image-Based Screen for Antagonists of the DOR Receptor. [Related pubchem assays (depositor defined):AID1777, AID1785, AID1786, AID2133]; format: functional
Fatty acid synthase [3] = target: T1, Fatty acid synthase; experiment: inhibition of human FAS-TE enzyme activity – biochemical, endpoint fluorescence intensity, uHTS hits, dose response (AID 624327); format: functional;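 also: fluorescence from hydrolysis of an O-methyl fluorescein acyl ester substrate by the enzyme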
[4] = target: T3, Kappa-type opioid receptor (Homo sapiens, UniProt P41145); format: functional
[5] = target: T3, Kappa-type opioid receptor; format: functional; remark: listed apart in the source
[6] = target: T2, Delta-type opioid receptor; experiment: HTS Image-Based Screen for Agonists of the DOR Receptor. [Related pubchem assays (depositor defined):AID1777, AID1786, AID2133]; format: functional
Mu-type opioid receptor = Mu-type opioid receptor (Homo sapiens, UniProt P35372); experiment: HTS Image-Based Screen for Agonists of the MOR Receptor. [Related pubchem assays (depositor defined):AID1777, AID1785, AID1786, AID2133]; format: functional;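 also: imaging of beta-arrestin GFP recruitment into spots after receptor activation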
Cannabinoid receptor 2 [7] = target: T4, Cannabinoid receptor 2 (Homo sapiens, UniProt P34972); experiment: SAR analysis of agonists of the Cannabinoid Receptor 2 using an Image-Based Assay - Set 3. [Related pubchem assays (depositor defined):AID2013, AID2026]; format: functional
Cannabinoid receptor 2 [8] = target: T4, Cannabinoid receptor 2; experiment: SAR analysis of antagonists of the Cannabinoid Receptor 2 using an Image-Based Assay - Set 3. [Related pubchem assays (depositor defined):AID2013, AID2026]; format: functional
[9] = target: G-protein coupled receptor 55 (Homo sapiens, UniProt Q9Y2T6); experiment: SAR Analysis of Selective Antagonists of GPR55 using an Image-Based Assay - Set 4. [Related pubchem assays (depositor defined):AID2013, AID2026]; format: functional;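 also: antagonism of response to 5 µM lysophosphatidylinositol agonist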
[10] = target: T5, G-protein coupled receptor 35 (Homo sapiens, UniProt Q9HC97); experiment: SAR analysis of Antagonists of the GPR35 Receptor using an Image-Based Assay - Set 6. [Related pubchem assays (depositor defined):AID2013, AID2026]; format: functional
Cannabinoid receptor 1 [11] = target: T6, Cannabinoid receptor 1 (Homo sapiens, UniProt P21554); experiment: SAR analysis of agonists of the Cannabinoid Receptor 1 using an Image-Based Assay - Set 4. [Related pubchem assays (depositor defined):AID2013, AID2026]; format: functional
Cannabinoid receptor 1 [12] = target: T6, Cannabinoid receptor 1; experiment: SAR analysis of antagonists of the Cannabinoid Receptor 1 using an Image-Based Assay - Set 4. [Related pubchem assays (depositor defined):AID2013, AID2026]; format: functional
[13] = target: T5, G-protein coupled receptor 35; experiment: SAR analysis of Agonists of the GPR35 Receptor using an Image-Based Assay - Set 4. [Related pubchem assays (depositor defined):AID2013, AID2026]; format: functional
[14] = target: T7, Tyrosine-protein phosphatase non-receptor type 7 (Homo sapiens, UniProt P35236); format: functional
T7 sequence (P35236 whole entry): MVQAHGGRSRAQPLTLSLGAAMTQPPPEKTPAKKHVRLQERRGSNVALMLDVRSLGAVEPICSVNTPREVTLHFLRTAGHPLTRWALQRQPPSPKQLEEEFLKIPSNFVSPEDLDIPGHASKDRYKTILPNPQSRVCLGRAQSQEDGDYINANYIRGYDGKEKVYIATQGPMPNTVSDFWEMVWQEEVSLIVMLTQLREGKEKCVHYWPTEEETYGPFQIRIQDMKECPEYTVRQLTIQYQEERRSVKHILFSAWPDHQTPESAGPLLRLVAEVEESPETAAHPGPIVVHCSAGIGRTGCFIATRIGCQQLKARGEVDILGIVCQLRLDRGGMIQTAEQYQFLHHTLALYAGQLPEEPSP

[15] = target: T8, Tyrosine-protein phosphatase non-receptor type 22 (Homo sapiens, UniProt Q9Y2R2); format: functional
T8 sequence (Q9Y2R2 whole entry): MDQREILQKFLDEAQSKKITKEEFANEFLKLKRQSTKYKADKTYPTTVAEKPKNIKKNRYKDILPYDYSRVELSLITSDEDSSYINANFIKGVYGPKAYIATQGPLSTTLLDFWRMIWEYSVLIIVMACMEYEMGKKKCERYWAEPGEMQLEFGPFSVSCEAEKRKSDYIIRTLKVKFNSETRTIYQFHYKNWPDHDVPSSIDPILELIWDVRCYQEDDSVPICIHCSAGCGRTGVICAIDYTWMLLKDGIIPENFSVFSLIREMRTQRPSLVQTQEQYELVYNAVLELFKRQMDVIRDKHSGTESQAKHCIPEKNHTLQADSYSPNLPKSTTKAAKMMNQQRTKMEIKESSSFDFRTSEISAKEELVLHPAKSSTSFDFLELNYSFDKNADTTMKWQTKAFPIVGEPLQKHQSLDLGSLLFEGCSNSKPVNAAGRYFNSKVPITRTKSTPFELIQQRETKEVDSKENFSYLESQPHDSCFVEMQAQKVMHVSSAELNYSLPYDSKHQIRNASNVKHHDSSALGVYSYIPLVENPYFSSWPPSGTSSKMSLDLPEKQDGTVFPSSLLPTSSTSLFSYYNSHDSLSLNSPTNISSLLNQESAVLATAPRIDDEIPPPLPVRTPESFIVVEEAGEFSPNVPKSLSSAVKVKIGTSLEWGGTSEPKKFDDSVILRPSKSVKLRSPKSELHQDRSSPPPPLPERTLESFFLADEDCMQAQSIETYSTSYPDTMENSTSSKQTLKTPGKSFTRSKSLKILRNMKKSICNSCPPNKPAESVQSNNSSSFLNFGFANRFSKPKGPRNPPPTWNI

[16] = target: T8, Tyrosine-protein phosphatase non-receptor type 22; format: functional; remark: listed apart in the source
[17] = target: Intestinal-type alkaline phosphatase (Homo sapiens, UniProt P09923); experiment: inhibition of human intestinal alkaline phosphatase – biochemical, dose response (AID 488876); format: functional
[18] = target: Intestinal-type alkaline phosphatase (Mus musculus, UniProt P24822); experiment: PubChem AID 488785; format: functional
[19] = target: T9, Alkaline phosphatase, tissue-nonspecific isozyme (Homo sapiens, UniProt P05186); experiment: TNAP enzyme inhibition by screening hits, dose response, selectivity assay for mouse IAP inhibitor project, biochemical, human TNAP, uHTS hits (AID 488906); format: functional
T9 sequence (P05186 whole entry): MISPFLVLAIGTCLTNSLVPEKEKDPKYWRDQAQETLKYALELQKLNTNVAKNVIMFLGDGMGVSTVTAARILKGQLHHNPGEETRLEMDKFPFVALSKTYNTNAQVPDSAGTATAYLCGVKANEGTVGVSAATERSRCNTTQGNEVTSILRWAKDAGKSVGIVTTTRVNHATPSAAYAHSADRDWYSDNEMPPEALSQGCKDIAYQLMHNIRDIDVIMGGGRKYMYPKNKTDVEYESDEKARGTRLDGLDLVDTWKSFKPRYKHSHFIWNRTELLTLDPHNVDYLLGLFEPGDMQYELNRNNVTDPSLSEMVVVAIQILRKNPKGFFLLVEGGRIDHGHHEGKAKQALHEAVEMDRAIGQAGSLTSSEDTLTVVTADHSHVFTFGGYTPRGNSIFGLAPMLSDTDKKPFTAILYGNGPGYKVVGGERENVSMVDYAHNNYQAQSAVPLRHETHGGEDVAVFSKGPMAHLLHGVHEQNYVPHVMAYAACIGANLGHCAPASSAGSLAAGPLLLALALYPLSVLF

[20] = target: Peroxisome proliferator-activated receptor gamma/Nuclear receptor coactivator 2 (Homo sapiens, UniProt P37231); experiment: (§1) TR-FRET dose response biochemical High Throughput Screening assay for agonists of the steroid receptor coactivator 2 (SRC-2) recruitment by the peroxisome proliferator-activated receptor gamma (PPAR gamma): non-selective agonists. [Related pubchem assays: 1297, 1032 ]; format: functional
[21] = target: Peroxisome proliferator-activated receptor gamma/Nuclear receptor coactivator 3 (Homo sapiens, UniProt P37231); experiment: as §1, with “3 (SRC-3)” for “2 (SRC-2)”, “1301 (Confirmation screen.), 1048 (Primary screen.)]” for “1297, 1032 ]”; format: functional
[22] = target: Peroxisome proliferator-activated receptor gamma/Nuclear receptor coactivator 1 (Homo sapiens, UniProt P37231); experiment: as §1, with “1 (SRC-1)” for “2 (SRC-2)”, “assays (depositor defined):AID1300, AID1808, AID504735, AID631]” for “assays: 1297, 1032 ]”; format: protein assay
[23] = target: T7, Tyrosine-protein phosphatase non-receptor type 7; experiment: inhibition of hematopoietic tyrosine phosphatase HePTP – biochemical, set 2, SAR follow-up (AID 449736); format: functional
[24] = target: T8, Tyrosine-protein phosphatase non-receptor type 22; experiment: inhibition of lymphoid tyrosine phosphatase LYP – biochemical, pCAP fluorogenic substrate, fluorescence, set 3, SAR follow-up (AID 449727); format: functional
[25] = target: Tyrosine-protein phosphatase non-receptor type 12 (Homo sapiens, UniProt Q05209); experiment: SAR Selectivity Analysis of small molecule inhibitors of PEST using pCAP in a fluorescence assay. [Related pubchem assays (depositor defined):AID1779, AID1784, AID2135]; format: functional
J774.A1 = experiment: Confirmation of image-based Screening Assay for Inhibitors of Phagocytosis. [Related pubchem assays (depositor defined):AID1029, AID1643]; format: functional, cell-based; details: Mus musculus
[26] = target: T8, Tyrosine-protein phosphatase non-receptor type 22; experiment: SAR LYP1 Fluorescent Assay using OMFP substrate for In Vitro dose response studies - Set 3. [Related pubchem assays (depositor defined):AID1779, AID1784, AID2140, AID2686]; format: functional
[27] = HEK-293T viability loss after treatment – luminescence, T-cell screen hits, cytotoxicity control for TCR NF-kB inhibitor project, dose response (AID 489026); format: functional, cell-based;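 also: cells exposed to compound about 14 hours before the viability readout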
[28] = Counterscreen for AddAB inhibitors: absorbance-based bacterial cell-based high throughput dose response assay for inhibitors of bacterial viability. [Related pubchem assays (depositor defined):AID435030, AID449728, AID449731, AID488942, AID488955, AID488956]; format: functional
Exodeoxyribonuclease V = Exodeoxyribonuclease V (Escherichia coli (strain K12), UniProt P04993+P07648+P08394); experiment: RecBCD inhibition via phage-restricted bacterial growth – absorbance, V66 E. coli, mutant T4 phage, counter-screen for AddAB inhibitor project, dose response (AID 492957); format: functional, cell-based, Escherichia coli str. K-12 substr. MG1655
[29] = (§2) Late stage assay provider results from the probe development effort to identify inhibitors of Protein Phosphatase Methylesterase 1 (PME-1): luminescence-based biochemical dose response assay to determine cytotoxicity of inhibitor compounds. [Related pubchem assays (depositor defined):AID2130, AID2143, AID2171, AID2174, AID2177, AID2232, AID2233, AID2291, AID2363, AID2365, AID2366, AID2368, AID2369, AID2371, AID463124, AID463130, AID463131, AID463132, AID463146, AID463149] Panel member name: Fetal Calf Serum; format: toxicity
[30] = target: Protein phosphatase methylesterase 1 (Homo sapiens, UniProt Q9Y570); experiment: Late stage assay provider results from the probe development effort to identify inhibitors of protein phosphatase methylesterase 1 (PME-1): Gel-based Activity-Based Protein Profiling (ABPP) IC50 Set 2. [Related pubchem assays (depositor defined):AID2130, AID2143, AID2171, AID2174, AID2177, AID2232, AID2233, AID2291, AID2363, AID2365, AID2366, AID2368, AID2369, AID2371, AID463090, AID463091]; format: functional
[31] = as §2, with “Serum-free Media” for “Fetal Calf Serum”; format: toxicity

T1 sequence (P49327 whole entry): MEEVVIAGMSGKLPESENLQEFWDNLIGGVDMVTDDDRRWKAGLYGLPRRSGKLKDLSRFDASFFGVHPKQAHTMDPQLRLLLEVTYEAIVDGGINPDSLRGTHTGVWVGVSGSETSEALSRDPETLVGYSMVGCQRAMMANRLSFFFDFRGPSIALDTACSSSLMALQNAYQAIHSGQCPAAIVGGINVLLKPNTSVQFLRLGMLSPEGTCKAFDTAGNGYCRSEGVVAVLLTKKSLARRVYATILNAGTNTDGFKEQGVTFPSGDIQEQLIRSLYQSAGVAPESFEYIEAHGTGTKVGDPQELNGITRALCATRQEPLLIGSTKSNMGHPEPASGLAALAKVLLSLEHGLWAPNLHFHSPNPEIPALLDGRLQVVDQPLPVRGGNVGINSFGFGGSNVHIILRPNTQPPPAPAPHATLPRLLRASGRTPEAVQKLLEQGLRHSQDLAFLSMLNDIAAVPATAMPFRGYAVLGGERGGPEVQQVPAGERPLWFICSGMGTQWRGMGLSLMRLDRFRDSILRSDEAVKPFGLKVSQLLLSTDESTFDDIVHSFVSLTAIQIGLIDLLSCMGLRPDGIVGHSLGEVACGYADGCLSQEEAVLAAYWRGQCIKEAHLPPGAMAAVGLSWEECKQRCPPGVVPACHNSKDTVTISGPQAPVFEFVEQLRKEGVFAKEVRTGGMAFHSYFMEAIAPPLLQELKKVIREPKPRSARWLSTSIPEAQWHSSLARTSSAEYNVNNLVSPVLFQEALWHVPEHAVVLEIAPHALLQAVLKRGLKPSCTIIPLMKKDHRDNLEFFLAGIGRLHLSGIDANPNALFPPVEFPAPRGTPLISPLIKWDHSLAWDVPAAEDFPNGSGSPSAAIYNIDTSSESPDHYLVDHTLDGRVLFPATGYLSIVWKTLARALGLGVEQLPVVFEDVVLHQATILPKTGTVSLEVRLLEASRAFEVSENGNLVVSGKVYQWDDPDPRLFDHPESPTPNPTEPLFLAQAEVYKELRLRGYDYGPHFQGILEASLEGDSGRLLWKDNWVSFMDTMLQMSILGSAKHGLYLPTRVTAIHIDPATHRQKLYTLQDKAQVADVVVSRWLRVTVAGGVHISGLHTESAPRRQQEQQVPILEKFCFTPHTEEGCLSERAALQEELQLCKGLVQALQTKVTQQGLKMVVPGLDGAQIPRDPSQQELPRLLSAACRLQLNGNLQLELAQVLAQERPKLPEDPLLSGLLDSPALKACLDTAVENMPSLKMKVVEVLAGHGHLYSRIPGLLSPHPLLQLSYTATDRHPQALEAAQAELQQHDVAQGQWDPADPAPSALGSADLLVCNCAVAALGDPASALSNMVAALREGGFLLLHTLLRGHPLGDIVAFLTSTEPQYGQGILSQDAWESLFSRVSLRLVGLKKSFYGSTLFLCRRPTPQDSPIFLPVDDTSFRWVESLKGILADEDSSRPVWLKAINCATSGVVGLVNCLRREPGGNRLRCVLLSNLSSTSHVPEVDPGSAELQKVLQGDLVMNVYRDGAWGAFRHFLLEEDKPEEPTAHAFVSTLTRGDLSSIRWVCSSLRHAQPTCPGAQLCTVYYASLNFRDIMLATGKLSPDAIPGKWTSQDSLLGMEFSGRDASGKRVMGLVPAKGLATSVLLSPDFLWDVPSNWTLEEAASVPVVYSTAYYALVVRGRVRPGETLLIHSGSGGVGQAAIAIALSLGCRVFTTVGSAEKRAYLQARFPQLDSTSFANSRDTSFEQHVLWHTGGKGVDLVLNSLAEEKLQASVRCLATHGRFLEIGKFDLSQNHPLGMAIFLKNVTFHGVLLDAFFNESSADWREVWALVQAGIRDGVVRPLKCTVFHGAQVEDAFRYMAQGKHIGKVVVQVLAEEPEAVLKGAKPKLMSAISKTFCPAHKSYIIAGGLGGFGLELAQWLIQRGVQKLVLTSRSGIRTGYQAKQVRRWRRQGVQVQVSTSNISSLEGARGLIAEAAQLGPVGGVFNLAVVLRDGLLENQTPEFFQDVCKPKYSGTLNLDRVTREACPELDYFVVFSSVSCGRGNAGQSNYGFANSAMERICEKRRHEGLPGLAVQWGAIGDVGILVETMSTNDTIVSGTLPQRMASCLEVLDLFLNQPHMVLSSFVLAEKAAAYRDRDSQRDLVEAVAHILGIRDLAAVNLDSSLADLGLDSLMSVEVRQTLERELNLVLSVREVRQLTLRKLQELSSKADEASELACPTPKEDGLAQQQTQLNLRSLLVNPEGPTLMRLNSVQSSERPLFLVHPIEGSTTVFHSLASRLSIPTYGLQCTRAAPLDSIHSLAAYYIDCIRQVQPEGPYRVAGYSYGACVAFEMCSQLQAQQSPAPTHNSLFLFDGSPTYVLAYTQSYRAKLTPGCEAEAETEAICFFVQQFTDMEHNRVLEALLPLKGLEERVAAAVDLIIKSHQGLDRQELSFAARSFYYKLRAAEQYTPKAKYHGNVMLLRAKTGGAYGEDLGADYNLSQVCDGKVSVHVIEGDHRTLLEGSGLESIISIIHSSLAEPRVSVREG
T3 sequence (P41145 whole entry): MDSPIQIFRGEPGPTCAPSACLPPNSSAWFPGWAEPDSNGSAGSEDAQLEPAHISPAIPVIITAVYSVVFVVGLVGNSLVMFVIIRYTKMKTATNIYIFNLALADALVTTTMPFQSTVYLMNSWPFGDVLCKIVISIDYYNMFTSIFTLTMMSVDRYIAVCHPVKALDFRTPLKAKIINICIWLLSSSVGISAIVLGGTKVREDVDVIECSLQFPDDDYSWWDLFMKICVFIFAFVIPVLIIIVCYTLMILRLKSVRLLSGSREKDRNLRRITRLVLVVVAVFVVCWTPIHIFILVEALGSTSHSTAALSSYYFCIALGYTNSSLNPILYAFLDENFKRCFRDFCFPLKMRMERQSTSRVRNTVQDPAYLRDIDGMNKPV
T4 sequence (P34972 whole entry): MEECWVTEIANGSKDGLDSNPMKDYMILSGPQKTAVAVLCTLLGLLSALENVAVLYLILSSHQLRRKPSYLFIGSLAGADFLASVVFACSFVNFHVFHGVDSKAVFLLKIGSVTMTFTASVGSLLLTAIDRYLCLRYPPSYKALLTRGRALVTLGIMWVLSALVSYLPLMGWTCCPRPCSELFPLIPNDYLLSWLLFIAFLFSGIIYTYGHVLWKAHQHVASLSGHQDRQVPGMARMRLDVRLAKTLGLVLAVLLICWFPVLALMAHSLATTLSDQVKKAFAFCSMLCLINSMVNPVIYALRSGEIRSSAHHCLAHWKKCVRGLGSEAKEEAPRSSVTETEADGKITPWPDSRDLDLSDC
T6 sequence (P21554 whole entry): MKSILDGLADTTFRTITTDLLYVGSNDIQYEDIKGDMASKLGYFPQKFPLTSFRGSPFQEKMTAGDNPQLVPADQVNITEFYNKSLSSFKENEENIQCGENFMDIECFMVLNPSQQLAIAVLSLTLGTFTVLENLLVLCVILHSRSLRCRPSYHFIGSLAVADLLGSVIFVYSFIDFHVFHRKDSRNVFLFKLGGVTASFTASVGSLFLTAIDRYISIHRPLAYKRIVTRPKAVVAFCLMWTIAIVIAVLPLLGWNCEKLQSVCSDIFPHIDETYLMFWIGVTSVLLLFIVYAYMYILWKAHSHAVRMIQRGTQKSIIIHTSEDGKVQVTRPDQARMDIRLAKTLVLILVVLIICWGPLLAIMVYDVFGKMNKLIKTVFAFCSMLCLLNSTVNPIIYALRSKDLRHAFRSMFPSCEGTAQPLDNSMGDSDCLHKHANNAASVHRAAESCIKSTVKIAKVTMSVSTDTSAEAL
T2 sequence (P41143 whole entry): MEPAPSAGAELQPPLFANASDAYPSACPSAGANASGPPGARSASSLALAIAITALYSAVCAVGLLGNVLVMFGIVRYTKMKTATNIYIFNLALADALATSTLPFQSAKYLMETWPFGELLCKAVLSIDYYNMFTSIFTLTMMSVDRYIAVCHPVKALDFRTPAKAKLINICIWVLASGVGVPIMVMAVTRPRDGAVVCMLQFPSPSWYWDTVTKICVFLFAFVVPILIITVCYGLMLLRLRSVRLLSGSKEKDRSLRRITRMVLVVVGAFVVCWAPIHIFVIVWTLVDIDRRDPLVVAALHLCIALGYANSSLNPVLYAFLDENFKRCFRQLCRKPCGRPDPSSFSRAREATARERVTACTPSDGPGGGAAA
T5 sequence (Q9HC97 whole entry): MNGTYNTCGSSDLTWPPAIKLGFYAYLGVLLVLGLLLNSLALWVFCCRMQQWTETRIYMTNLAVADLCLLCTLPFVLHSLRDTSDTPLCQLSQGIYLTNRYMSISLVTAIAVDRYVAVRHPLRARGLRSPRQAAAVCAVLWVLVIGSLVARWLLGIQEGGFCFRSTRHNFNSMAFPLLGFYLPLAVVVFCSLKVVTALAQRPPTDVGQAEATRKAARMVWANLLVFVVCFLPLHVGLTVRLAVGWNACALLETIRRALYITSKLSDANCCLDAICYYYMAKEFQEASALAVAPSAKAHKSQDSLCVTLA
Sequence of G-protein coupled receptor 55 (Q9Y2T6 whole entry): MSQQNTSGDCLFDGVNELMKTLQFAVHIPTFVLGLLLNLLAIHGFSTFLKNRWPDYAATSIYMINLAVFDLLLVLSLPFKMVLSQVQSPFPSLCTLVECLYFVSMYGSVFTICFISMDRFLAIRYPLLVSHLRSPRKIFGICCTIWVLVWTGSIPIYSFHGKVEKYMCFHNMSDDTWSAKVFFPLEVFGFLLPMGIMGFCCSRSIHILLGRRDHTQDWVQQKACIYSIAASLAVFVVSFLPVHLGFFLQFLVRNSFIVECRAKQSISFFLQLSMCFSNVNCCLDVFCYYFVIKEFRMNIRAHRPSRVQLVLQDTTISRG

In the case of O=C1C2ON(c3ccccc3)C(c3cccnc3)C2C(=O)N1c1ccc(Cl)c(Cl)c1 (stereo unspecified), the IC50 (Fatty acid synthase [1]) is reported as 8.26 µM (active), the IC50 [2] is reported as > 32 µM (inactive) and the IC50 (Fatty acid synthase [3]) is reported as 9.19 µM (active). The EC50 [4] was 26.4 µM, the EC50 [5] was > 35 µM and the EC50 [6] was > 32 µM (inactive). The EC50 (Mu-type opioid receptor) was > 32 µM (inactive).

In the case of CNC(=O)c1cc2c(=O)n3ccccc3nc2n(C2CCCC2)c1=N, the EC50 (Cannabinoid receptor 2 [7]) is reported as 2.52 µM (active), the IC50 (Cannabinoid receptor 2 [8]) is reported as > 32 µM (inactive) and the IC50 [9] is reported as 5.92 µM (active). For the same compound, the IC50 [10] was > 32 µM (inactive), the EC50 (Cannabinoid receptor 1 [11]) was > 32 µM (inactive) and the IC50 (Cannabinoid receptor 1 [12]) was > 32 µM (inactive). For the same compound, the EC50 [13] was > 32 µM (inactive).

With CSc1nsc(SCC(=O)Nc2cccc(C(C)=O)c2)n1 the IC50 [14] was > 79.4 µM (inactive), the IC50 [15] was > 79.4 µM (inactive) and the IC50 [16] was > 79.4 µM (inactive).

With NS(=O)(=O)c1ccc2c(c1)oc(=O)c1cc(S(N)(=O)=O)ccc12 the IC50 [17] was 7.73 µM (active), the IC50 [18] was 2.51 µM (active) and the IC50 [19] was 11.8 µM (active).

In the case of Cc1ccccc1Nc1nc(-c2ccccc2)c(C(=O)Nc2cccnc2)s1, the EC50 [20] is reported as 11.6 µM (not active), the EC50 [21] is reported as > 79.4 µM (not active) and the EC50 [22] is reported as 12.6 µM (inactive).

For CCOC(=O)C(C)Oc1cccc2c(=O)n(CC(=O)NCc3ccc4c(c3)OCO4)ccc12 (stereo unspecified), the IC50 [23] was 11.4 µM (active), the IC50 [24] was > 100 µM (inactive) and the IC50 [25] was > 100 µM (inactive). For the same compound, the IC50 (J774.A1) was 4.93 µM (active), the IC50 [26] was > 100 µM (inactive) and the IC50 [27] was > 80 µM (inactive).

For N#Cc1c(-c2ccccc2)ccn(Cc2cccc(Cl)c2)c1=O, the IC50 [28] was > 119 µM (inactive) and the IC50 (Exodeoxyribonuclease V) was > 119 µM (inactive).

With COC(=O)N1C(=O)[C@](c2ccccc2)(C2CCCC2)N1C(=O)OC the IC50 (Fatty acid synthase [1]) was 0.715 µM (active), the CC50 [29] was > 50 µM (inactive) and the IC50 (Fatty acid synthase [3]) was 0.884 µM (active). For the same compound, the IC50 [30] was 0.01 µM (active) and the CC50 [31] was > 50 µM (inactive).
